Data taken from PubChem BioAssay AID248 (DTP/NCI, 2004).
“And” between values parts separate entries of the source, which are not always exact repeats. Equal values may be shown once. Toxic doses and inconclusive results are not listed. Rule as the data show it: active = T/C of 150% or more; inactive = T/C below 125%.

System: L1210 leukemia ip in BDF1 mice, survival T/C
Assay: NCI In Vivo Anticancer Drug Screen. Data for tumor model L1210 Leukemia (intraperitoneal) in B6D2F1 (BDF1) mice
Details: endpoint: mean survival time, higher = longer survival
Method in brief: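 Ratio derived from survival: compound-dosed mice over vehicle-dosed mice, all bearing a transplantable tumor.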

[1] = dose: 100.0 mg/kg/injection, schedule: Q01DX009 (ip), vehicle: saline
[2] = dose: 200.0 mg/kg/injection, schedule: Q01DX009 (ip), vehicle: saline
[3] = dose: 100.0 mg/kg/injection, schedule: Q04DX003 (ip), vehicle: Klucel (hydroxypropylcellulose) (HPC)
[4] = dose: 200.0 mg/kg/injection, schedule: Q04DX003 (ip), vehicle: Klucel (hydroxypropylcellulose) (HPC)
[5] = dose: 400.0 mg/kg/injection, schedule: Q04DX003 (ip), vehicle: Klucel (hydroxypropylcellulose) (HPC)
[6] = dose: 100.0 mg/kg/injection, schedule: Q04DX002 (ip), vehicle: Klucel (hydroxypropylcellulose) (HPC)
[7] = dose: 200.0 mg/kg/injection, schedule: Q04DX002 (ip), vehicle: Klucel (hydroxypropylcellulose) (HPC)
[8] = dose: 400.0 mg/kg/injection, schedule: Q04DX002 (ip), vehicle: Klucel (hydroxypropylcellulose) (HPC)
[9] = dose: 100.0 mg/kg/injection, schedule: Q01DX001 (ip), vehicle: carboxymethylcellulose (CMC)
[10] = dose: 200.0 mg/kg/injection, schedule: Q01DX001 (ip), vehicle: carboxymethylcellulose (CMC)
[11] = dose: 400.0 mg/kg/injection, schedule: Q01DX001 (ip), vehicle: carboxymethylcellulose (CMC)
[12] = dose: 100.0 mg/kg/injection, schedule: Q01DX009 (ip), vehicle: Klucel (hydroxypropylcellulose) (HPC)
[13] = dose: 200.0 mg/kg/injection, schedule: Q01DX009 (ip), vehicle: Klucel (hydroxypropylcellulose) (HPC)
[14] = dose: 400.0 mg/kg/injection, schedule: Q01DX009 (ip), vehicle: Klucel (hydroxypropylcellulose) (HPC)
[15] = dose: 100.0 mg/kg/injection, schedule: Q04DX003 (ip), vehicle: saline
[16] = dose: 200.0 mg/kg/injection, schedule: Q04DX003 (ip), vehicle: saline
[17] = dose: 400.0 mg/kg/injection, schedule: Q04DX003 (ip), vehicle: saline
[18] = dose: 100.0 mg/kg/injection, schedule: Q04DX003 (ip), vehicle: saline with Tween-80
[19] = dose: 200.0 mg/kg/injection, schedule: Q04DX003 (ip), vehicle: saline with Tween-80
[20] = dose: 400.0 mg/kg/injection, schedule: Q04DX003 (ip), vehicle: saline with Tween-80

Measured: T/C

CCCCCC(C)(C)O
inactive: dose: 100.0 mg/kg/injection, schedule: Q01DX001 (ip), vehicle: saline 96 % of control | [1] 97 % of control | dose: 187.0 mg/kg/injection, schedule: Q01DX001 (ip), vehicle: saline 103 % of control | dose: 200.0 mg/kg/injection, schedule: Q01DX001 (ip), vehicle: saline 98 % of control | [2] 101 % of control | dose: 267.0 mg/kg/injection, schedule: Q01DX001 (ip), vehicle: saline 97 % of control | dose: 600.0 mg/kg/injection, schedule: Q01DX001 (ip), vehicle: saline 92 % of control

CCCCCCCCN(C(=S)NC(=O)c1ccccc1)c1ccccc1
inactive: [3] 93 % of control | [4] 89 % of control | [5] 91 % of control

Cc1cccc(NC(=O)Nc2ccccc2)n1
inactive: [6] 98 % of control | [7] 103 % of control | [8] 103 % of control

O=C(Nc1ccc(S(=O)(=O)c2ccc(NC(=O)C(F)(F)N3CCOCC3)cc2)cc1)C(F)(F)N1CCOCC1
inactive: [9] 103 % of control | [10] 97 % of control | [11] 103 % of control

CS(=O)(=O)OCCC(=O)NCNC(=O)CCOS(C)(=O)=O
inactive: dose: 10.6 mg/kg/injection, schedule: Q01DX Z (ip), vehicle: carboxymethylcellulose (CMC) 117 % of control and 120 % of control | dose: 16.0 mg/kg/injection, schedule: Q01DX Z (ip), vehicle: carboxymethylcellulose (CMC) 109 % of control | dose: 18.8 mg/kg/injection, schedule: Q01DX Z (ip), vehicle: carboxymethylcellulose (CMC) 124 % of control | dose: 24.0 mg/kg/injection, schedule: Q01DX Z (ip), vehicle: carboxymethylcellulose (CMC) 123 % of control | dose: 28.0 mg/kg/injection, schedule: Q01DX Z (ip), vehicle: carboxymethylcellulose (CMC) 124 % of control | dose: 54.0 mg/kg/injection, schedule: Q01DX Z (ip), vehicle: carboxymethylcellulose (CMC) 122 % of control | dose: 81.0 mg/kg/injection, schedule: Q01DX Z (ip), vehicle: carboxymethylcellulose (CMC) 117 % of control | dose: 84.0 mg/kg/injection, schedule: Q01DX Z (ip), vehicle: carboxymethylcellulose (CMC) 109 % of control | dose: 90.0 mg/kg/injection, schedule: Q01DX Z (ip), vehicle: carboxymethylcellulose (CMC) 121 % of control | dose: 95.0 mg/kg/injection, schedule: Q01DX Z (ip), vehicle: carboxymethylcellulose (CMC) 119 % of control

O=C(c1cccnc1)N1CCCC1
inactive: [12] 113 % of control | [13] 109 % of control | [14] 98 % of control

Nc1ccc(P(=O)(O)c2ccc(N)cc2)cc1
inactive: dose: 75.0 mg/kg/injection, schedule: Q01DX001 (ip), vehicle: carboxymethylcellulose (CMC) 94 % of control | dose: 150.0 mg/kg/injection, schedule: Q01DX001 (ip), vehicle: carboxymethylcellulose (CMC) 97 % of control | dose: 300.0 mg/kg/injection, schedule: Q01DX001 (ip), vehicle: carboxymethylcellulose (CMC) 103 % of control

CCOC(=O)CCCCCC(C(=O)OCC)c1nc2ccccc2[nH]c1=O (stereo unspecified)
inactive: [6] 99 % of control | [7] 101 % of control | [8] 86 % of control

CCCCCCCCCCCCCCCCCC[N+](CCCC)(CCCC)CCCCCCCCCCCCCCCCCC (tested in a mixture with another compound)
inactive: dose: 100.0 mg/kg/injection, schedule: Q01DX001 (ip), vehicle: other 93 % of control | dose: 200.0 mg/kg/injection, schedule: Q01DX001 (ip), vehicle: other 90 % of control

CNC(=O)/C(=C\c1ccccc1)NC(C)=O
inactive: dose: 100.0 mg/kg/injection, schedule: Q01DX001 (ip), vehicle: saline with Tween-80 91 % of control | dose: 200.0 mg/kg/injection, schedule: Q01DX001 (ip), vehicle: saline with Tween-80 107 % of control | dose: 400.0 mg/kg/injection, schedule: Q01DX001 (ip), vehicle: saline with Tween-80 100 % of control

COC(=O)C(C)NCc1ccccc1 (stereo unspecified)
inactive: [1] 95 % of control | [15] 107 % of control | [2] 100 % of control | [16] 107 % of control | dose: 400.0 mg/kg/injection, schedule: Q01DX009 (ip), vehicle: saline 100 % of control | [17] 102 % of control

CCCNC1(C(=O)O)CCCc2ccccc21 (stereo unspecified)
inactive: [3] 100 % of control | [4] 100 % of control | [5] 102 % of control

Cn1cnc([N+](=O)[O-])c1C(N)=O
inactive: [6] 88 % of control | [7] 95 % of control | [8] 88 % of control

COC(=O)c1n[nH]c(C)c1N=NN1CCOCC1
inactive: dose: 75.0 mg/kg/injection, schedule: Q01DX001 (ip), vehicle: saline 105 % of control | dose: 150.0 mg/kg/injection, schedule: Q01DX001 (ip), vehicle: saline 103 % of control | dose: 300.0 mg/kg/injection, schedule: Q01DX001 (ip), vehicle: saline 105 % of control

CCCCCCCCC(=O)Nc1cccc(OC(=O)NC)c1
inactive: [18] 94 % of control | [19] 96 % of control | [20] 90 % of control

c1ccc(C(c2cccc3ccccc23)N2CCCCC2)cc1 (stereo unspecified)
inactive: dose: 100.0 mg/kg/injection, schedule: Q01DX009 (ip), vehicle: saline with Tween-80 94 % of control | [18] 108 % of control | dose: 200.0 mg/kg/injection, schedule: Q01DX009 (ip), vehicle: saline with Tween-80 97 % of control | [19] 96 % of control | dose: 400.0 mg/kg/injection, schedule: Q01DX009 (ip), vehicle: saline with Tween-80 95 % of control | [20] 102 % of control

O=[N+]([O-])c1cc(Cl)ccc1S(=O)(=O)F
inactive: dose: 100.0 mg/kg/injection, schedule: Q04DX003 (ip), vehicle: carboxymethylcellulose (CMC) 103 % of control | dose: 200.0 mg/kg/injection, schedule: Q04DX003 (ip), vehicle: carboxymethylcellulose (CMC) 94 % of control

CCCCCCC(C)NCCO (stereo unspecified)
inactive: dose: 5.0 mg/kg/injection, schedule: Q01DX001 (ip), vehicle: saline 97 % of control | dose: 10.0 mg/kg/injection, schedule: Q01DX001 (ip), vehicle: saline 106 % of control | dose: 20.0 mg/kg/injection, schedule: Q01DX001 (ip), vehicle: saline 96 % of control | dose: 40.0 mg/kg/injection, schedule: Q01DX001 (ip), vehicle: saline 94 % of control | dose: 80.0 mg/kg/injection, schedule: Q01DX001 (ip), vehicle: saline 100 % of control

CN(C)N1C(=O)CC2(CCC(C(C)(C)C)CC2)CC1=O
inactive: dose: 50.0 mg/kg/injection, schedule: Q01DX001 (ip), vehicle: carboxymethylcellulose (CMC) 109 % of control | [9] 95 % of control | [10] 104 % of control | [11] 104 % of control

O=P(NC12CC3CC(CC(C3)C1)C2)(Oc1ccccc1Cl)Oc1ccccc1Cl
inactive: [12] 101 % of control | [13] 101 % of control | [14] 95 % of control

O=c1c2ccccc2sc2c1ccc1c2ccc2c(=O)c3ccccc3sc21
inactive: [18] 96 % of control | [19] 87 % of control

O=CN(c1ccccc1)c1ccccc1
inactive: dose: 100.0 mg/kg/injection, schedule: Q01DX009 (ip), vehicle: other 109 % of control | [15] 100 % of control | dose: 200.0 mg/kg/injection, schedule: Q01DX009 (ip), vehicle: other 106 % of control | [16] 102 % of control | dose: 400.0 mg/kg/injection, schedule: Q01DX009 (ip), vehicle: other 106 % of control | [17] 109 % of control

Cc1nc2c(-c3ccccc3)nc(C)n2nc1C
inactive: dose: 100.0 mg/kg/injection, schedule: Q04DX002 (ip), vehicle: saline with Tween-80 111 % of control | dose: 200.0 mg/kg/injection, schedule: Q04DX002 (ip), vehicle: saline with Tween-80 108 % of control | dose: 400.0 mg/kg/injection, schedule: Q04DX002 (ip), vehicle: saline with Tween-80 92 % of control

CCCC[n+]1ccc(C(N)=O)cc1
inactive: [15] 100 % of control | [16] 100 % of control
